From ChEMBL document CHEMBL3352488, “1,3-Dimethyl Benzimidazolones Are Potent, Selective Inhibitors of the BRPF1 Bromodomain” (ACS Med Chem Lett, 2014)
In brackets after ≈: the same amount, converted by molar mass. Activity calls are given as the source filed them. The rule behind the calls is not given here.

Key:
[1] = target: Bromodomain-containing protein 4 (Homo sapiens, UniProt O60885, Y390A); assay: Binding affinity to 6His-tagged-BRD4 BD1 Y390A mutant (1 to 477 aa) (unknown origin) by TR-FRET competitive assay
[2] = target: Bromodomain-containing protein 4 (Homo sapiens) (UniProt O60885); assay: Binding affinity to His-tagged-BRD4 BD1 (1 to 477 aa) (unknown origin) by STD-NMR analysis in presence of GW841819
[3] = target: Bromodomain-containing protein 4 (Homo sapiens) (UniProt O60885); assay: Binding affinity to His-tagged-BRD4 BD1 (1 to 477 aa) (unknown origin) by STD-NMR analysis
[4] = Permeability of the compound across artificial lipid membrane; assay type: ADME; settings: not told; read-out: permeability
[5] = Aqueous solubility of the compound in DMSO/phosphate buffered saline at pH7.4 by chemiluminescent nitrogen detection method; assay type: physicochemical; settings: pH 7.4

Row | Structure (SMILES) | IC50 [1] [µM] | further results
1 | COc1ccccc1C(=O)Nc1ccc2c(c1)n(C)c(=O)n2C | > 50.1 | –
2 | COc1cccc(C(=O)Nc2cc3c(cc2C)n(C)c(=O)n3C)c1 | > 50.1 | –
3 | Cn1c(=O)n(C)c2cc(C(N)=O)ccc21 | 79.4 | Activity [2]: inactive; Activity [3]: Active
4 | COc1ccccc1C(=O)Nc1cc2c(cc1N1CCCCC1)n(C)c(=O)n2C | – | Papp [4]: 35 ×10⁻⁶ cm/s; solubility kinetic [5]: 25 µM (≈ 9.86 µg/mL)

More lines, main results first:

Row | IC50 [1] [µM] | Structure (SMILES) | further results
5 | 2.51 | Cc1ccc(S(=O)(=O)Nc2ccc3c(c2)n(C)c(=O)n3C)c(C)c1 | –
6 | 15.8 | COc1cccc(C(=O)Nc2ccc3c(c2)n(C)c(=O)n3C)c1 | –
